# From EP4778932A1 (priority 2023, dated 2025)
# Experiments:
# NCI-N87 = assay: cells; assay type: cell-based; details: Homo sapiens, 120 h; NCI-N87 cells, five days co-incubation; read-out: IC50 (nM) NCI-N87
# Procedure: (§1) MDA-MB-231, OV90, and NCI-N87 cells at defined cell densities (1,500 cells per well, 80 µL volume) were seeded into 96-well plates. The cells were cultured overnight in a constant-temperature incubator (37°C, 5% CO2). Ecteinascidin derivative solutions at a maximum concentration of 2 mM were first prepared in DMSO, and serial 1:4 gradient dilutions were performed. 1 µL of each DMSO-prepared dilution was added to 99 µL of PBS containing 10% FBS per well and mixed thoroughly. The diluted solutions (2 µL of diluted solution and 18 µL of PBS containing 10% FBS per well) were then co-incubated with the cells (37°C, 5% CO2) for five days, after which CellTiter-Glo reagent (40 µL per well) was added, and […] values were measured using an i3x microplate reader.
# OV90 = assay: cells; assay type: cell-based; details: Homo sapiens, OV-90, 120 h; OV90 cells, five days co-incubation; read-out: IC50 (nM) OV90
# Procedure: as §1
# MDA-MB-231 = assay: cells; assay type: cell-based; details: Homo sapiens, 120 h; MDA-MB-231 cells, five days co-incubation; read-out: IC50 (nM) MDA-MB-231
# Procedure: as §1
# [1] = test system: specific soft tissue sarcomas; details: cited from earlier work
# [2] = 378 patients who received at least one dose; cited from earlier work
# [3] = test system: MDA-MB-231, OV90, and NCI-N87 cells; assay: Tumor cell proliferation inhibition assay of novel ecteinascidin derivatives, summary over the three cell lines; assay type: cell-based; details: compared with trabectedin and lurbinectedin
# Procedure: as §1, with “The” for “MDA-MB-231, OV90, and NCI-N87 cells at defined cell densities (1,500 cells per well, 80 µL volume) were seeded into 96-well plates. The”
Structure (SMILES),IC50 (NCI-N87),IC50 (OV90),IC50 (MDA-MB-231),in-vitro cytotoxic activities [3],also measured
COc1cc2c(cc1O)CCN[C@]21CS[C@@H]2c3c(OC(C)=O)c(C)c4c(c3[C@H](COC1=O)N1[C@@H]2[C@H]2c3c(cc(C)c(OC)c3O)C[C@@H]([C@@H]1O)N2C)OCO4 [Trabectedin],< 1 nM,10 to 200 nM,1 to 10 nM,–,"HR ([1]; disease progression or death, 95% CI: 0.44-0.70, p<0.001): 0.55; median OS ([1]; more than 500 patients): 13.7 months; risk of disease progression or death was reduced ([1]; more than 500 patients): 45%; median PFS ([1]; more than 500 patients, n=345, 95% CI: 3.0-4.8 months): 4.2 months; adverse reactions: constipation [2]: 37%; adverse reactions: decreased appetite [2]: 37%; adverse reactions: diarrhea [2]: 35%; adverse reactions: dyspnea [2]: 25%; adverse reactions: fatigue [2]: 69%; adverse reactions: headache [2]: 25%; adverse reactions: nausea [2]: 75%; adverse reactions: peripheral edema [2]: 28%; adverse reactions: vomiting [2]: 46%; grade 3-4 laboratory abnormalities: alanine transaminase (ALT) increase [2]: 31%; grade 3-4 laboratory abnormalities: anemia [2]: 19%; grade 3-4 laboratory abnormalities: aspartate transaminase (AST) increase [2]: 17%; grade 3-4 laboratory abnormalities: creatine kinase increase [2]: 6.4%; grade 3-4 laboratory abnormalities: neutropenia [2]: 43%; grade 3-4 laboratory abnormalities: thrombocytopenia [2]: 21%"
COc1c(C)cc2c(c1O)[C@@H]1[C@@H]3[C@@H]4SC[C@]5(NCCc6c5ccc(N)c6OC)C(=O)OC[C@@H](c5c6c(c(C)c(OC(C)=O)c54)OCO6)N3[C@@H](C#N)[C@H](C2)N1C [P166],< 1 nM,< 1 nM,< 1 nM,superior to or comparable to those of trabectedin and lurbinectedin,–
COc1cc(N)cc2c1[C@@]1(CS[C@@H]3c4c(OC(C)=O)c(C)c5c(c4[C@H](COC1=O)N1[C@@H]3[C@H]3c4c(cc(C)c(OC)c4O)C[C@@H]([C@@H]1C#N)N3C)OCO5)NCC2 [T1],< 1 nM,< 1 nM,< 1 nM,superior to or comparable to those of trabectedin and lurbinectedin,–
COc1c(C)cc2c(c1O)[C@@H]1[C@@H]3[C@@H]4SC[C@]5(NCCc6cc(NC(=O)CO)c(F)cc65)C(=O)OC[C@@H](c5c6c(c(C)c(OC(C)=O)c54)OCO6)N3[C@@H](C#N)[C@H](C2)N1C [P85],< 1 nM,< 1 nM,< 1 nM,superior to or comparable to those of trabectedin and lurbinectedin,–
COc1cc2c(cc1NC(=O)[C@H]1C[C@H](O)C1)CCN[C@]21CS[C@@H]2c3c(OC(C)=O)c(C)c4c(c3[C@H](COC1=O)N1[C@@H]2[C@H]2c3c(cc(C)c(OC)c3O)C[C@@H]([C@@H]1C#N)N2C)OCO4 [P75],< 1 nM,< 1 nM,< 1 nM,superior to or comparable to those of trabectedin and lurbinectedin,–
